Results: patent US9211296B2, “Therapeutic compounds for blocking DNA synthesis of POX viruses” (priority 2007, dated 2015)

These compounds were tested on vaccinia virus. Details: not given.
Format: cell-based
Wherever Blocking the replication of vaccinia virus in cells is given: test concentration or dose not given here.

Row | Structure (SMILES) | Blocking the replication of vaccinia virus in cells
1 | CN(C)CC/N=c1\cc(-c2ccccc2)oc2ccc(Cl)cc12 [I, (E)-N-1-(6-chloro-2-phenyl-4H-chromen-4-ylidene)-N2,N2-dimethylethane-1,2-diamine] | effective in blocking the replication of vaccinia virus in cells
2 | Cc1ccc2oc(-c3ccccc3)c/c(=N\CCO)c2c1 [II, (E)-2-(6-methyl-2-phenyl-4H-chromen-4-ylideneamino)ethanol] | effective in blocking the replication of vaccinia virus in cells
3 | CCC/N=c1\cc(-c2ccccc2)oc2ccc(C)cc12 [III, (E)-N-(6-methyl-2-phenyl-4H-chromen-4-ylidene)propan-1-amine] | effective in blocking the replication of vaccinia virus in cells
4 | O=C(O)c1ccccc1Nc1cccc(C(F)(F)F)c1 [IV, Flufenamic Acid] | effective in blocking the replication of vaccinia virus in cells
5 | O=C(O)Cn1c2ccc(Cl)cc2c2nc3ccccc3nc21 [IX, 6H-Indolo[2,3-b]quinoxaline-6-acetic acid, 9-chloro-(9CI)] | effective in blocking the replication of vaccinia virus in cells
6 | O=c1cc(-c2ccc(O)cc2)oc2cc(O)cc(O)c12 [V, Apigenin] | effective in blocking the replication of vaccinia virus in cells
7 | Cn1cc(C2=C(c3cn(CCCSC(=N)N)c4ccccc34)C(=O)NC2=O)c2ccccc21 [VI, Carbamimidothioic acid, 3-[3-[2,5-dihydro-4-(1-methyl-1H-indol-3-yl)-2,5-dioxo-1H-pyrrol-3-yl]-1H-indol-1-yl]propyl ester (9CI)] | effective in blocking the replication of vaccinia virus in cells
8 | COc1ccc(-c2cc3ccccn3c2C(=O)c2cccnc2)c(OC)c1 [VII, (2-(2,4-dimethoxyphenyl)indolizin-3-yl)(pyridin-3-yl)methanone] | effective in blocking the replication of vaccinia virus in cells
9 | COC(=O)c1cccc2c1-c1ccccc1/C2=N\O [VIII, (E)-methyl 9-(hydroxyimino)-9H-fluorene-4-carboxylate] | effective in blocking the replication of vaccinia virus in cells
10 | c1ccc2nc3c(nc2c1)c1ccccc1n3CCN1CCOCC1 [X, 6H-Indolo[2,3-b]quinoxaline-6-(2-morpholinoethy)] | effective in blocking the replication of vaccinia virus in cells
11 | CCS(=O)(=O)N1CCN=C1SCc1ccc(Cl)cc1Cl [XI, 1H-Imidazole, 2-[[(2,4-dichlorophenyl)methyl]thio]-1-(ethylsulfonyl)-4,5-dihydro-(9CI)] | effective in blocking the replication of vaccinia virus in cells
12 | Cc1cc(OC(=O)c2ccco2)nc(SCc2c(Cl)cccc2Cl)n1 [XII, 2-(2,6-dichlorobenzylthio)-6-methylpyrimidin-4-yl furan-2-carboxylate] | effective in blocking the replication of vaccinia virus in cells
13 | N=C1/C(=C/c2coc3ccccc3c2=O)C(=O)N=C2SC=NN12 [XIII, (Z)-5-imino-6-((4-oxo-4H-chromen-3-yl)methylene)-5H-[1,3,4]thiadiazolo[3,2-a]pyrimidin-7(6H)-one] | effective in blocking the replication of vaccinia virus in cells
14 | Cc1ccc2c(Sc3ccc(Cl)cc3)c(C(=O)O)[nH]c2c1 [XIV, 3-(4-chlorophenylthio)-6-methyl-1H-indole-2-carboxylic acid] | effective in blocking the replication of vaccinia virus in cells
15 | Cc1csc2c(N3CCN(C(=O)NC(C)(C)C)CC3)ncnc12 [XIX, N-tert-butyl-4-(7-methylthieno[3,2-d]pyrimidin-4-yl)piperazine-1-carboxamide] | effective in blocking the replication of vaccinia virus in cells
16 | Cc1cc(N)c2cc(OCCOc3ccc4nc(C)cc(N)c4c3)ccc2n1 [XL, 6,6′-(ethane-1,2-diylbis(oxy))bis(2-methylquinolin-4-amine)] | effective in blocking the replication of vaccinia virus in cells

Row | Structure (SMILES) | Blocking the replication of vaccinia virus in cells
17 | O=S(=O)(c1cc(Cl)ccc1O)c1cc(Cl)ccc1O [XLI, 2,2′-sulfonylbis(4-chlorophenol)] | effective in blocking the replication of vaccinia virus in cells
18 | Oc1ccc([Te]CCNCC[Te]c2ccc(O)cc2)cc1 [XLII, 4,4′-(2,2′-azanediylbis(ethane-2,1-diyl)bis(tellanediyl))diphenol] | effective in blocking the replication of vaccinia virus in cells
19 | Cc1c(N=Cc2cc(Br)cc(Br)c2O)cccc1C(=O)O [XV, Benzoic acid, 3-[[(3,5-dibromo-2-hydroxyphenyl)methylene]amino]-2-methyl-(9CI)] | effective in blocking the replication of vaccinia virus in cells
20 | Cc1cc(/N=C/c2cc(Cl)cc(Cl)c2O)no1 [XVI, (E)-2,4-dichloro-6-((5-methylisoxazol-3-ylimino)methyl)phenol] | effective in blocking the replication of vaccinia virus in cells
21 | CC(=O)n1c2ccccc2c2nc(C)sc21 [XVII, 4H-Thiazolo[5,4-b]indole, 4-acetyl-2-methyl-(9CI)] | effective in blocking the replication of vaccinia virus in cells
22 | CCN1CCCC1CNC(=O)c1ccc2c(c1)sc1nc(-c3cccc(OC)c3)cn12 (stereo not shown) [XVIII, Imidazo[2,1-b]benzothiazole-7-carboxamide, N-(1-ethyl-2-pyrrolidyl)methyl-2-(3-methoxyphenyl)-(9CI)] | effective in blocking the replication of vaccinia virus in cells
23 | O=C(Nc1ccccc1C(=O)O)OCC1c2ccccc2-c2ccccc21 [XXI, Benzoic acid, 2-[[(9H-fluoren-9-ylmethoxy)carbonyl]amino]-(9CI)] | effective in blocking the replication of vaccinia virus in cells
24 | COc1ccc(Nc2nc(N3CCN(C)CC3)nc3ccccc23)c(OC)c1 [XXII, 4-Quinazolinamine, N-(2,4-dimethoxyphenyl)-2-(4-methyl-1-piperazinyl)-(9CI)] | effective in blocking the replication of vaccinia virus in cells
25 | COc1ccc2c(C)nc(N=C(N)N=C(C)c3ccccc3C(=O)O)nc2c1 [XXIII, Benzoic acid, 2-[1-[[amino[(7-methoxy-4-methyl-2-quinazolinyl)imino]methyl]imino]ethyl]-(9CI)] | effective in blocking the replication of vaccinia virus in cells
26 | CCn1c2ccccc2c2ccc(/C=N/n3cnnc3)cc21 [XXIV, (E)-N-((9-ethyl-9H-carbazol-2-yl)methylene)-4H-1,2,4-triazol-4-amine] | effective in blocking the replication of vaccinia virus in cells
27 | CN(C)CCOC(=O)c1ccc2[nH]c3c(c2c1)CSCC3 [XXIX, Thiopyrano[4,3-b]indole-8-carboxylic acid, 1,3,4,5-tetrahydro-, 2-(dimethylamino)ethyl ester (7CI,8CI,9CI)] | effective in blocking the replication of vaccinia virus in cells
28 | O=C(C=Cc1ccco1)C=Cc1ccco1 [XXVI, 1,4-Pentadien-3-one, 1,5-di-2-furanyl-(9CI)] | effective in blocking the replication of vaccinia virus in cells
29 | COC(=O)c1c(NC(=O)c2ccc(OC)cc2)sc2c1CCN(C(C)C)C2.Cl [XXVII, Methyl 6-isopropyl-2-(4-methoxyphenylamido)-4,5,6,7-tetrahydrothieno[2,3-c]pyridine-3-carboxylate hydrochloride] | effective in blocking the replication of vaccinia virus in cells
30 | CCOC(=O)c1c(NC(=O)/C=C/C(=O)O)sc(C)c1-c1ccccc1 [XXVIII, (E)-4-(3-(ethoxycarbonyl)-5-methyl-4-phenylthiophen-2-ylamino)-4-oxobut-2-enoic acid] | effective in blocking the replication of vaccinia virus in cells
31 | CN(C)c1ccc(-c2cccc(-c3ccc(N(C)C)cc3)[o+]2)cc1 [XXX, 2,6-bis(4-(dimethylamino)phenyl)pyrylium] | effective in blocking the replication of vaccinia virus in cells
32 | CCN1C(=O)/C(=C/C=C/c2ccco2)C(=O)NC1=S [XXXI, (E)-1-ethyl-5-((E)-3-(furan-2-yl)allylidene)-2-thioxodihydropyrimidine-4,6(1H,5H)-dione] | effective in blocking the replication of vaccinia virus in cells

What follows are compounds tested against vaccinia virus DNA synthesis (viral DNA polymerase and its associated factors) (Vaccinia virus, UniProt P06856). Details: read-out: DNA Synthesis IC50.
Format: biochemical

Row | Structure (SMILES) | IC50 [µM]
33 | CCN1CCN(c2ccc(Nc3ccnc4cc5ccccc5cc34)cc2)CC1 | 0.5
34 | BrCc1ccc(-c2noc(-c3ccncc3)n2)cc1 | 1.3
35 | CC[n+]1cc(/C=C2\SC=CN2C)c(C)c2cc(OC)c3ccccc3c21 | 3.5
36 | COc1ccc2c(c1)C=C/C(=C\c1sc3ccccc3[n+]1C)N2C | 4
37 | CC(C)Nc1ccc(Nc2ccnc3cc4ccccc4cc23)cc1 | 4.1
38 | CCOC(=O)c1cnc2c(C)c(C)ccc2c1NCCCN(C)C | 5
39 | CC1=CC(C)(C)N=C(Nc2nc(C)c3cc(C)cc(C)c3n2)N1 | 5.3
40 | CN(C)CCc1cc2c(c3c1ccc1ccccc13)OCO2 | 5.4
41 | CCN(CC)CCCNc1nc2cc(OC)c(OC)cc2c2nc(-c3ccccc3)nn12 | 5.9
42 | Cc1cc(NCCN2CCCCC2)c2ccc3ccccc3c2n1 | 6
43 | OC(CN1CCNCC1)Cn1c2ccc(Br)cc2c2cc(Br)ccc21 (stereo not shown) | 6.3
44 | CC1CCCC(C)N1CCNc1nc2ccccc2c2nc(-c3ccccc3)nn12 (stereo not shown) | 7.3
45 | O=C(O)c1ccc(CS(=O)(=O)c2ccccc2)o1 | 7.4
46 | COc1ccc2nc(NC(=N)N)nc(C)c2c1 | 7.4
47 | O=C(NCCCN1CCCC1)c1cc2c(Cl)nc3ccccc3c2s1 | 10
48 | Cc1ccc2nc(Cl)c3cc(C(=O)N(CCN(C)C)Cc4ccco4)sc3c2c1 | 10
49 | CN(C)CC/N=c1\cc(-c2ccccc2)oc2ccc(Cl)cc12 [drawing 93] | 6.7
